Measured values from patent publication US20250067727A1, “BIOENGINEERED NEURONAL ORGANOIDS (BENOS) AND USES THEREOF” (Georg-August-Universität Göttingen Stiftung Öffentlichen …, priority 2017, published 2025).

Columns and labels:
[1] = system: bioengineered neuronal organoids (BENOs) from human pluripotent stem cells; assay: whole mount immunofluorescence (neurofilament) analysis of BENOs; type: cell-based
Procedure: (§1) In initial attempts, single SMAD pathway inhibition (using noggin) was employed to elicit neural induction, along with the addition of retinoic acid (RA). In the present study, it was tested whether dual SMAD signaling pathway inhibition using noggin and SB431542 during the neural induction phase (days 0-8) might further enhance neurogenesis, e.g., at day 28. Accordingly, NCM containing only noggin, or NCM containing noggin and SB431542, were each investigated.
Consequently, it appears advantageous to increase the amount of neural progenitor cells (NPCs) inside the tissue by treating the organoids with FGF-2 (days 8-15). This corresponds to the use of NPEM in the above protocol. To test whether the use of FGF-2 is favorable, tissues (3000 cell/μl) were treated with 10 ng/ml FGF-2 at two different time-points; day −2 to day 0 (before neural induction at the stem cell stage), and day 8 to day 15 at the NPC stage (FIG. 3B).

[2] = system: bioengineered neuronal organoids (BENOs) from human pluripotent stem cells; assay: qPCR transcript analysis of neuronal and glia markers in BENOs; type: cell-based; parameters: PAX6 transcripts: dose or concentration left out as unconfirmed
Procedure: as §1
Numerous conventional protocols in the literature employ neurotrophic factors BDNF and GDNF to improve neuronal survival at the differentiation and maturation stages. Therefore, it was tested whether the addition of BDNF (20 ng/ml) and GDNF (10 ng/ml) to NPEM during culture days 10-28 would result in a higher number of maturing neurons by day 28 (FIG. 4). […]
In all protocols, the differentiation was carried out in Neurobasal™ medium supplemented with B27 and N2. hiPS cells were subjected to neuroectoderm induction (days 0-8) under dual SMAD inhibition (noggin & SB431542) and additional retinoic acid (RA) supplementation to mimic signaling that occurs during embryonic neurogenesis. In protocol 2, the proliferative effects of FGF-2 (day 8-15) in neural progenitor cells (NPCs) were tested. In protocol 3, the effect of Notch inhibitor DAPT in neuronal commitment of NPCs (day 15-28) was tested. In protocol 4, the proliferative effects of TGF-beta 1 for glia cells (day 8-28) were tested. In protocol 5, TGF-beta 1 and DAPT treatments were combined in order to test whether development of glia and neurons can be enhanced simultaneously.
In order to assess the neurogenic and gliogenic potential afforded by the different protocols, tissues were collected at days −1, 0, 3, 8, 15, 28 and 40 (3-6 tissues/time point). Since the treatment until day 8 was identical for all protocols, tissues until that time point were only collected from protocol 1. […] Since treatment with DAPT (protocols 3 and 5) was evidently supporting neurogenesis and TGF-beta 1 appeared to support gliogenesis, the time course analysis was extended for protocol 3 (DAPT) and protocol 5 (DAPT and TGF-beta 1).

[3] = system: GABAergic network of BENOs (GABAR); assay: calcium imaging of BENO neuronal network under GABAergic inhibition; type: cell-based, human; conditions: for synchrony of the same neurons upon inhibitor washout: after picrotoxin 58 μM and saclofen 330 μM; for synchrony of previously spontaneously synchronized neurons under GABAR inhibition: picrotoxin 58 μM and saclofen 330 μM applied together, BENOs days 30-60, n=3, 4 pairs of cells
Procedure: To test neuronal network activity, BENOs (days 30-60) were subjected to calcium imaging under GABAergic inhibition (carried out using picrotoxin, 58 μM; saclofen, 330 μM; n=3). GABAR inhibition led to an asynchrony of previously spontaneously synchronized neurons (4 pairs of cells).

[4] = SB431542 added to noggin during neural induction (days 0-8) vs noggin only, n=4 tissues/group
[5] = protocols 3 and 5, DAPT day 15-28, time course
[6] = BDNF (20 ng/ml) and GDNF (10 ng/ml) added together, culture days 10-28, analysed day 28

Which results are given for `NC(=O)c1ccc(-c2nc(-c3ccc4c(c3)OCO4)c(-c3ccccn3)[nH]2)cc1` [SB431542]?
amount of maturing neurons (immunofluorescence and PAX6/MAP2 transcripts) ([1]; dual SMAD inhibition, noggin and SB431542, days 0-8, vs noggin only, day 28): clearly observed to be advantageous; increase of neuronal marker MAP2 (qPCR) [2, 4]: 21 fold; increase of neuronal marker PAX6 (qPCR) [2, 4]: 21 fold

How did the “synchrony of the same neurons upon inhibitor washout” value [3] turn out when picrotoxin was run?
Its value is “re-synchronized”.

And the “synchrony of previously spontaneously synchronized neurons under GABAR inhibition” value [3]?
Its value is “asynchrony”.

How did the “amount of the glia marker GFAP” value ([2]; protocols 4 and 5, TGF-beta 1 day 8-28, by day 40, vs the other 3 protocols) turn out when “TGF-beta 1: transforming growth factor beta 1 (Peprotech)” was run?
Its value is “higher amounts”.

Which “synchrony of the same neurons upon inhibitor washout” value [3] does the source give for `NCC(CS(=O)(=O)O)c1ccc(Cl)cc1` (stereo not shown) [saclofen] here?
Its value is “re-synchronized”.

What about the “synchrony of previously spontaneously synchronized neurons under GABAR inhibition” value [3] of the same molecule?
Its value is “asynchrony”.

Which “neurofilament staining, double treatment vs single treatment” value ([1]; 10 ng/ml FGF-2, day -2-0 and days 8-15 vs days 8-15 only) does the source give for “FGF-2: member of the fibroblast growth factor family, encoded by the FGF2 gene” here?
The value was “did not seem to be advantageous”.

And the “neurofilament staining, advantage compared to untreated tissues” value ([1]; 10 ng/ml FGF-2, day -2 to day 0 (stem cell stage), read at day 28)?
The value was “did not appear to provide any advantage”.

What about the “neuronal network complexity at day 28 (IF whole mount staining of neurofilament)” value ([1]; 10 ng/ml FGF-2, days 8-15) of the same molecule?
The value was “more complex neuronal networks”.

And the “proliferation of the cells including NPCs” value ([1]; 10 ng/ml FGF-2, days 8-15 (NPC stage))?
The value was “markedly induced proliferation”.

What about the “level of different markers (OCT4, GFAP, PAX6, MAP2, GRIN1, GABBR2) at any time point” value ([2]; protocol 2, FGF-2 day 8-15, time course days -1 to 40) of the same molecule?
Its value is “did not significantly influence”.

`C[C@H](NC(=O)Cc1cc(F)cc(F)c1)C(=O)NC(C(=O)OC(C)(C)C)c1ccccc1` (stereo partly shown) [DAPT] was tested. Which PAX6 transcripts ([2]; DAPT added to NDM, day 15-28) did it give?
Its PAX6 transcripts is “increase”.

What about the “amount of the neuronal marker GABBR2” value [2, 5] of the same molecule?
The value was “significantly increased”.

What about the “amount of the neuronal marker GRIN1” value [2, 5] of the same molecule?
The value was “significantly increased”.

And the “amount of the neuronal marker MAP2” value [2, 5]?
The value was “significantly increased”.

What about the “amount of the neuronal marker PAX 6” value [2, 5] of the same molecule?
Its value is “significantly increased”.

B1: BDNF: neurotrophic factor used to improve neuronal survival (protein, UniProt P23560 129-247, looked up)
Neurotrophic factor BDNF: HSDPARRGELSVCDSISEWVTAADKKTAVDMSGGTVTVLEKVPVSKGQLKQYFYETKCNPMGYTKEGCRGIDKRHWNSQCRTTQSYVRALTMDSKKRIGWRFIRIDTSCVCTLTIKRGR
modifications: Neurotrophic factor BDNF
B1 was tested. Which “amount of the maturation marker MAP2” value [2, 6] did it give?
Its value is “do not increase”.

And the “amount of the neuronal marker PAX 6” value [2, 6]?
The value was “do not increase”.

B2: GDNF: neurotrophic factor used to improve neuronal survival (protein, UniProt P39905 78-211, looked up)
Glial cell line-derived …: SPDKQMAVLPRRERNRQAAAANPENSRGKGRRGQRGKNRGCVLTAIHLNVTDLGLGYETKEELIFRYCSGSCDAAETTYDKILKNLSRNRRLVSDKVGQACCRPIAFDDDLSFLDDNLVYHILRKHSAKRCGCI
Which “amount of the maturation marker MAP2” value [2, 6] does the source give for B2 here?
Its value is “do not increase”.

And the “amount of the neuronal marker PAX 6” value [2, 6]?
The value was “do not increase”.
